Results reported in US11026910B2, “α- and γ-truxillic acid derivatives and pharmaceutical compositions thereof” (The Research Foundation for The State University of New York, priority 2012, dated 2021).

Tests used:
FABP5 [1] = biological target: T1, FABP5 (Homo sapiens, UniProt Q01469); test: High throughput fluorescence displacement assay with NBD-stearate; type: binding; conditions: stated in words only
T1 construct: made in house
Method: FABP5 (30 μg), NBD-stearate (1 μM), and a competitor test compound were incubated in 30 mM Tris-HCl, 100 mM NaCl buffer (pH 7.6). […] The initial assay was run with buffer (30 mM Tris-HCl buffer), negative controls (buffer and NBD-stearate), positive controls (buffer, NBD-stearate, FABP5), and experimental wells with a variable test compound added (arachidonic acid or one of the 48 test compounds) at 10 μM. […] The Kd of NBD-stearate for FABP5 had been determined previously through incubating FABP5 with increasing concentrations of NBD-stearate.

male C57Bl6 mice [2] = test: Formalin test; type: in vivo
Method: (§1) We used male C57Bl6 mice (22-30 g, Taconic Farms) for all experiments. The animals were group housed at room temperature and kept on a 12:12 hour light:dark cycle with ad libitum access to water and food. The animals were habituated to the experimental room for one week before testing. All experiments were approved by the Stony Brook University Institutional Animal Care and Use Committee. The experimenter was blinded to the treatment conditions of each animal.
Mice were habituated to the observation chamber (Plexiglas box, 25 cm×25 cm×25 cm) for 30 min prior to formalin injection. The mice subsequently received an injection of formalin (2.5% in saline, 20 μl) into the plantar surface of the right hind paw using a 27 gauge needle. The animals were immediately placed back into the observation, chamber and nocifensive behavior (time spent licking or biting the paw) was recorded for 60 min. The formalin test consists of two phases with the first phase (0-5 min) reflecting nociceptor activation and the second phase (15-45 min) reflecting an inflammatory pain response.
(§2) Behavioral data are presented as means±S.E.M. for the vehicle and inhibitor-treated groups, each consisting of at least 6 animals. Statistical significance between vehicle and inhibitor groups was determined using unpaired t-tests or one-way ANOVA followed by Dunnett's post hoc analysis. In all cases, differences of p<0.05 were considered significant.

male C57Bl6 mice [3] = test: Carrageenan-induced paw edema and thermal hyperalgesia; type: in vivo; conditions: 20 mg/kg, i.p. (FIG. 16A)
Method: as §1
Paw edema was induced by injecting 1% λ-carrageenan (20 μl, in sterile saline) into the plantar surface of the left hind paw and a control solution of saline into the right hind paw using a 27 gauge needle. Paw diameters were measured before carrageenan injection and 4 hours after injection using digital electronic calipers (Fisher) and expressed to the nearest ±0.01 mm. […] The cannabinoid receptor antagonists, rimonabant and SR144528 (3 mg/kg, i.p.), in ethanol:emulphor:saline (1:1:18), were injected 15 min before the FABP inhibitor. Edema is reported as the change in paw diameter at 4 hr over the baseline. Changes in paw diameter of saline-injected contralateral paws were negligible. Thermal hyperalgesia measured the latency to withdraw the paw from a focused beam of radiant heat applied to the plantar surface of the hind paw using a Hargreaves plantar apparatus (Ugo Basile) set at an intensity of 3.0. For each mouse, the average latencies consisted of three trials spaced at least 5 minutes apart. The mice were habituated to the test chamber for 30 min. The cutoff time was set at 30 sec.
as §2

[4] = literature; cited from earlier work
FABP4 = FABP4 (Homo sapiens, UniProt P15090); conditions: McDonnell 2006; read-out: Ki against FABP4 (1,8-ANS displacement); cited from earlier work
Sequence of FABP4 (P15090 whole entry, species assumed): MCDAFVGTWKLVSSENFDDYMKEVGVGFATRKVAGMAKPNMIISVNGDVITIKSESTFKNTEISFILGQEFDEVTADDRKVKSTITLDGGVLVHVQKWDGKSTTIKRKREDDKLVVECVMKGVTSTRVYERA

FABP5 [5] = biological target: T1, FABP5; conditions: cited from earlier work
FABP7 = FABP7 (Homo sapiens, UniProt O15540); conditions: natural substrate; read-out: Ki against FABP7; cited from earlier work
Sequence of FABP7 (O15540 whole entry, species assumed): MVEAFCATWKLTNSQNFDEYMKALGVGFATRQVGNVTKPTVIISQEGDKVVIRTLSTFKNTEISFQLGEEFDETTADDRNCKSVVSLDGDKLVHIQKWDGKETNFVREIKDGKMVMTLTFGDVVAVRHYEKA

male C57Bl6 mice [6] = conditions: literature SAR study (Chi 2005); cited from earlier work

T1 sequence (Q01469 whole entry, species assumed): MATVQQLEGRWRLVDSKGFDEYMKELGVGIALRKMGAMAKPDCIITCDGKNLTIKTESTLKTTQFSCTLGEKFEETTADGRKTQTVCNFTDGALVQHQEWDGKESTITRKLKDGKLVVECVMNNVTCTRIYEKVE

O=C(O)[C@H]1[C@H](c2ccccc2)[C@H](C(=O)Nc2cccc3ccccc23)[C@H]1c1ccccc1 (stereo in doubt) [Compound 53, 3-(naphthalen-1-ylcarbamoyl)-2,4-diphenylcyclobutanecarboxylic Acid]
FABP inhibition activity (FABP5 [1]): analogous FABP inhibition activity to Compound 26

O=C(O)[C@H]1[C@H](c2ccccc2)[C@H](C(=O)Oc2ccc3ccccc3c2)[C@H]1c1ccccc1 (stereo in doubt) [Compound 54, 3-((naphthalen-2-yloxy)carbonyl)-2,4-diphenylcyclobutanecarboxylic Acid]
first phase of formalin-induced nociception (male C57Bl6 mice [2]; FIG. 16B): reduce
second phase of formalin-induced nociception (male C57Bl6 mice [2]; FIG. 16B): reduce
FABP inhibition activity (FABP5 [1]): analogous FABP inhibition activity to Compound 26
carrageenan-induced paw edema, 24 hrs after inhibitor administration (male C57Bl6 mice [3]): reduced
carrageenan-induced thermal hyperalgesia, 24 hrs after inhibitor administration (male C57Bl6 mice [3]): reduced

COc1cc([C@H]2[C@H](C(=O)O[C@@H]3C[C@@H]4[C@@H](CN(C)C[C@@H]4C)[C@@H]3C)[C@H](c3ccc(O)c(OC)c3)[C@H]2C(=O)O[C@@H]2C[C@@H]3[C@@H](CN(C)C[C@@H]3C)[C@@H]2C)ccc1O [(−)-incarvillateine]
antinociceptive properties [4]: antinociceptive properties on the same level as morphine

O=C(O)[C@@H](O)c1cccc(OCc2ccccc2Cl)c1OCc1ccccc1Cl [BMS480404]
Ki (FABP4): 2.5 nM

O=C(O)C1C(c2ccccc2)C(C(=O)Oc2cccc3ccccc23)C1c1ccccc1 (stereo not shown) [Compound 49, γ-2,4-diphenyl-cyclobutane-1,3-dicarboxylic Acid mono-(1-napthyl) Ester]
results in formalin induced mice models (male C57Bl6 mice [2]; mouse, in vivo): excellent results

CCCCCCC(CCCCCCCCCCC(=O)O)N(C)c1ccc([N+](=O)[O-])c2nonc12 (stereo not shown) [NBD-stearate, 12-N-methyl-(7-nitrobenz-2-oxa-1,3-diazo) aminostearic acid]
Kd (FABP5 [5]; one site binding analysis, determined previously (Kaczocha 2012), read-out: Kd of NBD-stearate for FABP5): 160 nM

CCCCC/C=C\C/C=C\C/C=C\C/C=C\CCCC(=O)O [arachidonic acid]
Ki (FABP5 [5]; published value, read-out: Ki against FABP5, published / previously determined): 130 nM

CCCCCCCC/C=C\CCCCCCCC(=O)O [oleic acid]
Ki (FABP7): 350 nM

O=C(O)C1C(c2ccccc2)C(C(=O)O)C1c1ccccc1 (stereo not drawn) [α-truxillic acid, α-2,4-diphenyl-cyclobutane-1,3-dicarboxylic Acid]
antinociception in early and late stage pain, formalin induced mouse models (male C57Bl6 mice [6]): best antinociceptive agent in both early and late stage pain
